Read-outs that look alike come from different tables or passages of the source.
Assays:
[1] = target: T1, BTN2A1 B30.2–BTN3A1 B30.2 (Homo sapiens, UniProt O00481+Q7KYR7, R449A/R469A); test: ITC: BTN2A1 B30.2 (and mutants) binding to BTN3A1 B30.2 in the presence of pAg
T1 construct: The BTN3A1 B30.2 domain was expressed and purified as described previously; 6xHis; made in house; host or cells: Escherichia coli BL21 (DE3) for BTN2A1 B30.2
Description: ITC binding fits were calculated using MicroCal Analysis software.
For the experiments testing the binding of BTN2A1/BTN2A2 B30.2 domain (including their mutants) to the BTN3A1 B30.2 domain with or without HMBPP, BTN3A1 B30.2 (100 µM) and HMBPP (300 µM) were incubated in the buffer at a 1:3 ratio and loaded into the sample cell, and the injection syringe was filled with the buffer containing 1 mM BTN2A1/BTN2A2 B30.2 (including their mutants).

VpBTN3 BFI = VpBTN3 BFI (Vicugna pacos, UniProt A0A345DF50); test: ITC: pAg binding to VpBTN3 BFI; parameters: species or system alpaca (Vicugna pacos); settings: ITC; read-out: KD, pAg binding to VpBTN3 intracellular domain (BFI)
Description: ITC experiments were performed using the MicroCal PEAQ-ITC instrument (GE Healthcare) at 25 °C. We used an initial injection of 0.4 μl followed by 19 injections (2 µl each) at 150 s time intervals. ITC binding fits were calculated using MicroCal Analysis software. The samples were prepared using a buffer (20 mM HEPES pH 7.5, 150 mM NaCl).
ITC experiments of HMBPP, DMAPP or IPP binding to the VpBTN3 BFI (or the preconditioned VpBTN3 BFI and VpBTN2 BFI complex) and VpBTN2 BFI (or VpBTN1 BFI) binding to VpBTN3 BFI in the presence of HMBPP, DMAPP or IPP were performed according to the same procedures as for the BTN3A1 B30.2 and BTN2A1 B30.2.

MIA PaCa-2 cells [2] = test: AFM-SCFS binding force between a Vγ9Vδ2 T cell and a MIA PaCa-2 cell; type: cell-based, human; parameters: binding force, Mean, Fig. 6b / binding force, Median, Fig. 6b: unit not given here
Description: The AFM-SCFS analysis procedure was performed using the JPK CellHesion unit as previously described, and closely followed our previously reported protocol for APCs[4]. […] The glass disks were quickly transferred to an AFM adapter with immediate addition of 1 ml of fresh medium (DMEM: 10% FBS and 1% penicillin–streptomycin). […] The raw data were normalized to the background readings. Blank readings for each set of affinity measurements (Vγ9Vδ2 T cells touching the glass surface) were collected immediately before each assay to perform background subtraction. All data were analysed using the JPK image processing software. […] The following steps were the same as described above.

MIA PaCa-2 cells [3] = test: Cell killing assay: cytotoxicity of Vγ9Vδ2 T cells towards pAg- or zoledronate-treated MIA PaCa-2 cells (luciferase); type: cell-based, human; settings: for Bottom (best-fit value) / Top (best-fit value) / Span (best-fit value): Fig. 1b; for Bottom (best-fit value) / Top (best-fit value): log(agonist) vs. response (three parameters); for EC50: Homo sapiens
Description: MIA PaCa-2 cells were infected with lentivirus bearing luciferase transgene. Luciferase-positive cells were plated at 5.0 × 10^3 cells per well in 384-well plates 1 day before transfection. All plasmids were transfected into BTN2A^−/− MIA PaCa-2 (BTN2A1/BTN2A2 KO) cells using Lipofectamine 2000 reagent. […] Stable-lite luciferase (Vazyme) was added to each well and the luciferase signal was immediately measured by using the PerkinElmer EnVision microplate reader.
Percentage of lysis was calculated using the following equation: percentage of specific lysis = (maximum luciferase − experimental luciferase)/maximum luciferase × 100.

[4] = 2A1-KO cells + HMBPP, 31 values
[5] = 2A1ΔB30.2 cells + HMBPP, 39 values

T1 sequence (O00481 322-513): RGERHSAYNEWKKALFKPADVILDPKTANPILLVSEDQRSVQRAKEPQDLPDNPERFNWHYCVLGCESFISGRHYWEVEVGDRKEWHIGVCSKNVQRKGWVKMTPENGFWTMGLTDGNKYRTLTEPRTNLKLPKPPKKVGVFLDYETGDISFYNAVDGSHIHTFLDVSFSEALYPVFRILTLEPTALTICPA
T1 sequence (Q7KYR7 316-527 R449A/R469A): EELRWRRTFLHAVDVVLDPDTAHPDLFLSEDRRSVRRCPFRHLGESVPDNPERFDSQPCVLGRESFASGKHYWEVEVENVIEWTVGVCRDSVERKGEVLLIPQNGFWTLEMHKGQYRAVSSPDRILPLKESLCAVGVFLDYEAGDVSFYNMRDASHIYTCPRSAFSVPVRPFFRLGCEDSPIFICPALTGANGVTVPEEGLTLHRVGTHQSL
VpBTN3 BFI, sequence (A0A345DF50 entry or part of it): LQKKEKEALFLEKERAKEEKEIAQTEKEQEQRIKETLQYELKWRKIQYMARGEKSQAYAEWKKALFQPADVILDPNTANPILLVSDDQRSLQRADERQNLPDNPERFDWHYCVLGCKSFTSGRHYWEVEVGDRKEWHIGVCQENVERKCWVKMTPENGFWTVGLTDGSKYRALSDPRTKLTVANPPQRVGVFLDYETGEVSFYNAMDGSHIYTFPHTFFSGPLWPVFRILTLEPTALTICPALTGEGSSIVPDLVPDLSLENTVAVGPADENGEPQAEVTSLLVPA

## C/C(=C\COP(=O)(O)OP(=O)(O)O)CO [Compound 1, (E)-4-hydroxy-3-methylbut-2-en-1-yl diphosphate]
[1]
  Binding of 2A1 B30.2 R449A/R469A to 3A1 B30.2 in the presence of HMBPP: does not bind
VpBTN3 BFI
  Kd: 1370 nM
MIA PaCa-2 cells [2]; [4]
  binding force, Mean, Fig. 6b: 767.7
  binding force, Median, Fig. 6b: 745
MIA PaCa-2 cells [2]; 2A1 cells + HMBPP, 31 values
  binding force, Mean, Fig. 6b: 1509
  binding force, Median, Fig. 6b: 1510
MIA PaCa-2 cells [2]; [5]
  binding force, Mean, Fig. 6b: 594.3
  binding force, Median, Fig. 6b: 585
MIA PaCa-2 cells [2]; after HMBPP treatment (1 µM, 4 h), untreated 558 pN
  Binding force between a Vγ9Vδ2 T cell and a MIA PaCa-2 cell: 1,554 pN
MIA PaCa-2 cells [3]; 2A1 KO cells
  Bottom (best-fit value): 2.135
  Top (best-fit value): 50.59
MIA PaCa-2 cells [3]; 2A1 KO cells, three-parameter fit
  Span (best-fit value): 48.45
MIA PaCa-2 cells [3]; 2A1 WT cells
  Bottom (best-fit value): 19.47
  Top (best-fit value): 76.92
MIA PaCa-2 cells [3]; 2A1 WT cells, three-parameter fit
  Span (best-fit value): 57.45
MIA PaCa-2 cells [3]; MIA PaCa-2, BTN2A1 WT MIA PaCa-2 cells, read-out: EC50 for HMBPP-mediated MIA PaCa-2 cell killing
  EC50: 6.5e-09 M
MIA PaCa-2 cells [3]; MIA PaCa-2, BTN2A1−/− (KO) MIA PaCa-2 cells, read-out: EC50 for HMBPP-mediated MIA PaCa-2 cell killing
  EC50: 3.6e-05 M
MIA PaCa-2 cells [3]; MIA PaCa-2, Fig. 1b, 2A1 KO cells, log(Concentration)/M, three-parameter fit, read-out: LogEC50 (converted)
  EC50: 3.6e-05 M
MIA PaCa-2 cells [3]; MIA PaCa-2, Fig. 1b, 2A1 KO cells, three-parameter fit, read-out: EC50
  EC50: 3.6e-05 M
MIA PaCa-2 cells [3]; MIA PaCa-2, Fig. 1b, 2A1 WT cells, log(Concentration)/M, three-parameter fit, read-out: LogEC50 (converted)
  EC50: 6.5e-09 M
MIA PaCa-2 cells [3]; MIA PaCa-2, Fig. 1b, 2A1 WT cells, three-parameter fit, read-out: EC50
  EC50: 6.5e-09 M
MIA PaCa-2 cells [3]; MIA PaCa-2, Supplementary Table 4, read-out: EC50 (M) for MIA PaCa-2 cell lysis mediated by HMBPP analogs and Vγ9Vδ2 T cells
  EC50: 3.87e-09 M

From publication PMC10533412, “Phosphoantigens glue butyrophilin 3A1 and 2A1 to activate Vγ9Vδ2 T cells” (Nature, 2023)
